These results are taken from patent publication US20120208882A1, “Organic Compounds” (priority 2005, published 2012).

One assay concerns the target T1, rh-prostasin (Homo sapiens, UniProt Q16651).
T1 construct: made in house
Briefly: Biochemical assay, recombinant human prostasin, fluorescent peptide substrate. Here is the method:
(§1) Biochemical assays: Recombinant human prostasin and matriptase and guinea pig prostasin are generated according to methods described in Shipway et al., Biochemical and Biophysical Research Communications 2004; 324(2):953-63). The recombinant enzymes are incubated in an electrolyte buffer test compounds or vehicle in a suitable multiple well assay plate such as a 96 or 384 well plate. At a defined time after the mixing of enzyme with compound. Or vehicle, a suitable fluorescent peptide substrate is added to the assay mixture. As substrate becomes cleaved by the active enzyme; fluorescence (measured using a suitable fluorescence plate reader) increases and the rate of turnover of substrate (i.e. enzyme activity) can be quantified and thus the inhibitory effect of any test compound. The efficacy of test compounds is expressed as the concentration that induces a 50% attenuation in the enzyme activity (Ki). […] Short circuit current (ISC) is then measured by voltage clamping the epithelia to zero millivolts. The amiloride-sensitive ISC is then measured by the addition of amiloride (10 μM) to the apical surface of the epithelia. […] The tracheal potential difference, is then measured using a suitable high impedance voltmeter as described in Takahashi et al., Toxicol Appl Pharmacol. 1995; 131(1):31-6. […]

The test system of assay [1] is Guinea pig tracheal potential difference. The assay is described as follows: Tracheal potential difference (in vivo). Particulars: for ED50: Cavia porcellus, inhaled or nasal, i.t., read-out: GPig tracheal PD in vivo (ED50). Here is the method: Biochemical assays: Recombinant human prostasin and matriptase and guinea pig prostasin are generated according to methods described in Shipway et al., Biochemical and Biophysical Research Communications 2004; 324(2):953-63). The recombinant enzymes are incubated in an electrolyte buffer test compounds or vehicle in a suitable multiple well assay plate such as a 96 or 384 well plate. At a defined time after the mixing of enzyme with compound. Or vehicle, a suitable fluorescent peptide substrate is added to the assay mixture. As substrate becomes cleaved by the active enzyme; fluorescence (measured using a suitable fluorescence plate reader) increases and the rate of turnover of substrate (i.e. enzyme activity) can be quantified and thus the inhibitory effect of any test compound. The efficacy of test compounds is expressed as the concentration that induces a 50% attenuation in the enzyme activity (Ki). Epithelial ion transport: Human bronchial epithelial cells are cultured according to methods described in Danahay et al., American Journal of Physiology Lung Cell Molecular Physiology 2002; 282(2):L226-36). When suitably differentiated (days 14-21 after establishing an apical-air interface) epithelial cells are treated with either vehicle, aprotinin (200 μg/ml) or test compound for 90 minutes. Epithelia are then, placed into Ussing Chambers as described in Danahay et al., American Journal of Physiology Lung Cell Molecular Physiology 2002; 282(2):L226-36) maintaining the concentration of vehicle, aprotinin or test compound on the apical side of the epithelia. Short circuit current (ISC) is then measured by voltage clamping the epithelia to zero millivolts. The amiloride-sensitive ISC is then measured by the addition of amiloride (10 μM) to the apical surface of the epithelia. The potency of the test compound is expressed as the concentration inducing a 50% inhibition of the total aprotinin-sensitive component of the amiloride-sensitive ISC. Tracheal potential difference (in vivo): Guinea pigs are anaesthetized using a short acting inhalation anaesthesia such as halothane and N20. Whilst under short acting anaesthesia an oral gavage needle is inserted into the trachea via the oropharangeal route. Once inside the trachea, a small volume (50-200 μl) of vehicle or test compound, in a suitable aqueous-based diluent, is instilled into the airways. Animals then recover and become fully ambulatory. Alternatively test compounds can be administered to animals using aerosol or dry powder dosing. At a defined time after dosing, the animals are surgically anaesthetized using a suitable anaesthesia such as ketamine and xylazine. The trachea is then exposed and a plastic agar bridge electrode is inserted into the tracheal lumen. A reference electrode is also inserted into the layers, of muscle in the animal's neck. The tracheal potential difference, is then measured using a suitable high impedance voltmeter as described in Takahashi et al., Toxicol Appl Pharmacol. 1995; 131(1):31-6. The potency of the test compound is expressed as the dose inducing a 50% reduction in the sensitive-component of the tracheal potential difference.

The next assay has as its target rGPig-prostasin (Cavia porcellus, UniProt A0A286XIW9). Briefly: Biochemical assay, recombinant guinea pig prostasin, fluorescent peptide substrate. Here is the method:
as §1

In assay [2] the test system is Human bronchial epithelial cells (amiloride-sensitive, ENaC-mediated short circuit current). Briefly: Epithelial ion transport: amiloride-sensitive short circuit current in Ussing chambers. Format: cell-based. The following applies: Epithelial cell, 1.5 h, 50% inhibition of aprotinin-sensitive component of amiloride-sensitive ISC, 90 minutes treatment, read-out: HBEC (IC50). Here is the method: as §1

The target in the next assay is T2, rh-matriptase (Homo sapiens, UniProt Q9Y5Y6).
T2 construct: made in house
T2 sequence (Q9Y5Y6 1-855): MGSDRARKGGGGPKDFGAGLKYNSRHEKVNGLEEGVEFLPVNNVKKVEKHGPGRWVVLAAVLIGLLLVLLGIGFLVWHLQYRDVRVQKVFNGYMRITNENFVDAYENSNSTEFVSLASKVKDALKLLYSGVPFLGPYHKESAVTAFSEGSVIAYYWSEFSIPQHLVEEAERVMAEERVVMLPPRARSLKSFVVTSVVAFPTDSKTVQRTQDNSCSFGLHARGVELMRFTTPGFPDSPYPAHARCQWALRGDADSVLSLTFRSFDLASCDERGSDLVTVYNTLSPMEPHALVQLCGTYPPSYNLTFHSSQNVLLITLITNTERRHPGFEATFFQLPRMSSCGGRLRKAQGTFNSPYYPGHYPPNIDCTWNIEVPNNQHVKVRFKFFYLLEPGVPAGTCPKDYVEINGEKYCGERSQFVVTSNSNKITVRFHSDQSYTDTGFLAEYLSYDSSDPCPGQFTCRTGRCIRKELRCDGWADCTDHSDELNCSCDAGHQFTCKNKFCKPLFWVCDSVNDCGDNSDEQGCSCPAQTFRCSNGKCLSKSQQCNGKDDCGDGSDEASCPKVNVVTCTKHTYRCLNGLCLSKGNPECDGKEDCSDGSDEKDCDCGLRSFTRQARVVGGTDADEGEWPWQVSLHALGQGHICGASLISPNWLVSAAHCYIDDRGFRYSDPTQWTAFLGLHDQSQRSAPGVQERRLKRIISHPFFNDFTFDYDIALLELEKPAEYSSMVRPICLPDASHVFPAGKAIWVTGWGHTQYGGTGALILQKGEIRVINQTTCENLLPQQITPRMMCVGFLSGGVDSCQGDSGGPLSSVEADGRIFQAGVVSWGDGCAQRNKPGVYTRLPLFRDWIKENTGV
The assay is described as follows: Biochemical assay, recombinant human matriptase, fluorescent peptide substrate. Here is the method: as §1

Counter-ions that a name gives are not always drawn. Like-named read-outs stand apart in the source and are kept apart here.

rGPig-prostasin, sequence (A0A286XIW9 1-343): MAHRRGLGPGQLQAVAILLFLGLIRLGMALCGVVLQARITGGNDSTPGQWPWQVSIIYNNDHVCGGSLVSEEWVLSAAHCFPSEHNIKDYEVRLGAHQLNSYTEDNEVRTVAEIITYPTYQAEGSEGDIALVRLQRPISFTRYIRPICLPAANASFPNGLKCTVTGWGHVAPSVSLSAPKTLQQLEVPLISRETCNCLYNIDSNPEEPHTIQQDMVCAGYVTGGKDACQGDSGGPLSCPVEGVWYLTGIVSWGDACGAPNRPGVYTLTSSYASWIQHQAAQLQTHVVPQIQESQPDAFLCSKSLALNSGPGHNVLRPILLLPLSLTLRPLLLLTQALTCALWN
T1 sequence (Q16651 33-343): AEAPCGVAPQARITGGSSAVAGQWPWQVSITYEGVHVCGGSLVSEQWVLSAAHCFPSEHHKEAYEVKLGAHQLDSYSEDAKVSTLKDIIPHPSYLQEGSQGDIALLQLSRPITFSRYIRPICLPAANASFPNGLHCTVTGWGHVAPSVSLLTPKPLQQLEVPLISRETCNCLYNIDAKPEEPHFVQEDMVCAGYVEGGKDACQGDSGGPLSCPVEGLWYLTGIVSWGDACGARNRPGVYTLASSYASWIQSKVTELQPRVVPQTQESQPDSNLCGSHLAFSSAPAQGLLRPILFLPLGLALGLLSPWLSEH

For the molecule `CN(C)C(=O)COC(=O)Cc1ccc(OC(=O)c2ccc(NC(=N)N)cc2)cc1` [Camostat mesylate, N,N-dimethyl-carbamoylmethyl-p-(p-guanidinobenzoyloxy)phenylacetate], the inhibitory constant (Ki) (in general, the equilibrium dissociation constant of an inhibitor or competing ligand from its target) on rh-prostasin amounted to 429 nM; on rGPig-prostasin it was 98 nM; at rh-matriptase, 5 nM. For the same molecule, the “Mean absolute tracheal potential difference (± s.e. mean)” value in assay [1] (2 hr, 1 μg/kg intra-tracheal) is reported as −10.0 ± 0.7; in assay [1] (2 hr, 3 μg/kg intra-tracheal), −7.3 ± 0.5; in assay [1] (2 hr, 10 μg/kg intra-tracheal), −6.4 ± 0.5; in assay [1] (2 hr, 30 μg/kg intra-tracheal), −5.3 ± 0.3; in assay [1] (2 hr, 100 μg/kg intra-tracheal), −4.7 ± 0.5; in assay [1] (5 hr, 3 μg/kg intra-tracheal), −10.8 ± 1.0. Further, the “Mean absolute tracheal potential difference (± s.e. mean)” value in assay [1] (5 hr, 10 μg/kg intra-tracheal) was −9.7 ± 1.5; in assay [1] (5 hr, 30 μg/kg intra-tracheal) it was −7.5 ± 0.4; in assay [1] (5 hr, 100 μg/kg intra-tracheal), −6.5 ± 0.3; in assay [1] (5 hr, 300 μg/kg intra-tracheal) it was −5.2 ± 0.3; in assay [1] (5 hr, 1000 μg/kg intra-tracheal) it was −5.7 ± 0.4. The ED50 (as a rule, the midpoint of the dose-response relation) in assay [1] (2 hr after dosing) is 0.0033 mg/kg; in assay [1] (5 hr after dosing), 0.026 mg/kg. The IC50 – broadly, the concentration at which inhibition is half-maximal – in assay [2] amounted to 50 nM.
